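Method: 48-hour compound exposure of cells in 96-well plates, five concentrations, linear interpolation of endpoints. GI50 = concentration required for 50% inhibition of growth. TGI marks complete inhibition of growth.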
Columns and labels:
Assay in all cases: NCI-60 cell line screen, 48 h
OVCAR-8 ovarian = system: OVCAR-8 ovarian
SW-620 colon = system: SW-620 colon
SF-539 CNS = system: SF-539 CNS
SN12C renal = system: SN12C renal
MOLT-4 leukemia = system: MOLT-4 leukemia
SF-268 CNS = system: SF-268 CNS
SK-MEL-2 melanoma = system: SK-MEL-2 melanoma
T-47D breast = system: T-47D breast
PC-3 prostate = system: PC-3 prostate

Row | SMILES | GI50 (OVCAR-8 ovarian) [nM] | TGI (OVCAR-8 ovarian) [µM] | GI50 (SW-620 colon) [nM] | TGI (SW-620 colon) [µM] | GI50 (SF-539 CNS) [nM] | TGI (SF-539 CNS) [µM] | GI50 (SN12C renal) [nM] | TGI (SN12C renal) [µM] | GI50 (MOLT-4 leukemia) [nM] | TGI (MOLT-4 leukemia) [µM] | GI50 (SF-268 CNS) [nM] | TGI (SF-268 CNS) [µM] | GI50 (SK-MEL-2 melanoma) [nM] | TGI (SK-MEL-2 melanoma) [µM] | GI50 (T-47D breast) [nM] | TGI (T-47D breast) [µM] | GI50 (PC-3 prostate) [nM] | TGI (PC-3 prostate) [µM]
1 | CCCCCCCCn1ccc2cc(NC(=O)Cn3cc(CN4CCCC4)nn3)ccc21 | 2000 | 4.09 | 1860 | 3.6 | 1730 | 3.19 | 1740 | 3.29 | 2410 | 5.9 | 1780 | 3.57 | 1860 | 3.66 | 1730 | 3.76 | – | –
2 | COc1cc(Nc2nc3ccccc3nc2-c2cccs2)cc(OC)c1OC | – | > 10 | – | > 100 | – | > 100 | – | > 100 | – | > 100 | – | > 100 | – | > 100 | – | – | – | –
3 | CCOC(=O)/C(C#N)=C/c1[nH]c(C(=O)OCc2ccccc2)c(C)c1C | – | > 100 | – | > 100 | – | > 100 | – | > 100 | – | > 100 | – | > 100 | – | > 100 | – | – | – | –
4 | O=C(Nc1ccc(-c2nc(N3CCOCC3)c3cccn3n2)cc1)Nc1cccnc1 | 49.1 | > 100 | 52.4 | > 100 | 39.6 | 0.296 | – | – | 230 | 6.8 | 248 | 87.6 | 333 | > 100 | – | – | 51.2 | 2.27
5 | O=C(CC1(O)C(=O)Nc2ccccc21)c1ccncc1 (stereo not drawn) | – | – | – | > 100 | – | > 100 | – | > 100 | – | > 100 | – | > 100 | – | > 100 | – | – | – | –
6 | Cc1c(C(=O)C/C(=N/NC(=O)C[N+](C)(C)C)C(=O)Nc2ccc(Cl)cc2)[n+](=O)c2ccccc2n1O | – | > 100 | – | > 100 | – | > 100 | – | > 100 | – | > 100 | – | > 100 | – | > 100 | – | – | – | –
7 | C/C(CC(=O)Nc1cc(C)ccc1C)=N\NC(=O)c1ccncc1 | – | > 100 | – | > 100 | – | > 100 | – | – | – | > 100 | – | > 100 | – | > 100 | – | – | – | –
8 | CCCC1N2CCCCC2[C@@H]2c3[nH]c4ccccc4c3CCN12 (stereo partly drawn) | – | > 100 | – | > 100 | – | > 100 | – | > 100 | – | > 100 | – | > 100 | – | > 100 | – | – | – | –
9 | O=C(CCc1cc(-c2ccccc2)nc(=S)[nH]1)N(Cc1ccccc1)Cc1ccccc1 | – | > 100 | – | > 100 | – | > 100 | – | > 100 | – | > 100 | – | > 100 | – | > 100 | – | – | – | –
10 | CCOC(=S)SSSC(=S)OCC | – | 32.3 | – | > 100 | – | > 100 | – | 70 | – | 94.7 | – | > 100 | – | – | – | 60 | – | > 100
11 | CC(=O)OCC1OC(NC(=S)N/N=C2\CC(c3ccccc3)Oc3ccccc32)C(OC(C)=O)C(OC(C)=O)C1OC(C)=O (stereo not drawn) | – | > 100 | – | > 100 | – | > 100 | – | > 100 | – | > 100 | – | > 100 | – | – | – | – | – | –
12 | COCCCNC(=O)C1C(=O)C(=O)N(CCCOC)C1=O (stereo not drawn) | – | > 100 | – | > 100 | – | > 100 | – | > 100 | – | > 100 | – | > 100 | – | > 100 | – | – | – | –
13 | Cc1ccc(NC(=O)CC(=O)n2nc(C)c(N=Nc3ccccc3C(=O)O)c2C)cc1 | – | > 100 | – | > 100 | – | > 100 | – | > 100 | – | > 100 | – | > 100 | – | > 100 | – | – | – | –
14 | COc1ccc2c(c1)[n+](=O)c(C(=O)C/C(=N/OCCCc1ccccc1)C(=O)NC13CC4CC(CC(C4)C1)C3)c(C)n2[O-] | – | > 100 | – | > 100 | – | > 100 | – | > 100 | – | > 100 | – | > 100 | – | > 100 | – | – | – | –
15 | Cc1cc(-c2cnn3c(NCC4CC(C)(O)C4)cc(Oc4cccnc4)nc23)ccc1C(=O)NC1CC1 (stereo not drawn) | 2410 | > 100 | 591 | > 100 | 2010 | > 100 | 2960 | > 100 | – | – | 8720 | > 100 | 1950 | > 100 | – | – | – | –
16 | Cn1c2ccccc2c2ccc3c(c21)C(=O)c1ccccc1C3=O | – | 61.6 | – | > 100 | – | 41.2 | – | 73.1 | – | – | – | 66.6 | – | – | – | 49.8 | – | 33.2
17 | Nc1cccc(S(=O)(=O)NCC(=O)O)c1 | – | > 100 | – | > 100 | – | > 100 | – | > 100 | – | > 100 | – | > 100 | – | > 100 | – | – | – | –
